The source of these data is EP4768499A1, “MACROCYCLIC PEPTIDE COMPOUND HAVING CELL MEMBRANE PERMEABILITY AND METABOLIC STABILITY, AND LIBRARY CONTAINING SAME” (Chugai Seiyaku Kabushiki Kaisha, priority 2023, dated 2025).

Structures are written as SMILES. Starred links: 1 amine or outer side, 2 acyl side, 3 side chain; linkers in the order of their positions; H or OH if unused. Positions of bridges follow the written chain, without caps; N, C: chain ends. Non-standard residues stand in square brackets, D forms with d. Residues, ends and D or L forms follow the SMILES beside them. *: point of attachment. NMedβ3hAla = C[C@H](CC(=O)[*:2])N(C)[*:1]; NMeF = CN[C@@H](Cc1ccccc1)C(=O)O; NMeI = CC[C@H](C)[C@H](NC)C(=O)O; NMeT = CN[C@H](C(=O)O)[C@@H](C)O; hPhe = N[C@@H](CCc1ccccc1)C(=O)O; NMeβAla = CN(CCC(=O)[*:2])[*:1]; NMeD = CN[C@@H](CC(=O)O)C(=O)O; NMeL = CN[C@@H](CC(C)C)C(=O)O; NMeV = CN[C@H](C(=O)O)C(C)C; NMeAbu = CC[C@H](NC)C(=O)O; NMeA = CN[C@@H](C)C(=O)O; Piperidide = C1CCN(*)CC1; Abu = CC[C@H](N)C(=O)O; Sar = CNCC(=O)O; tBu = CC(C)(C)* Bounds are passed on as bounds.

The nature of data set [1]: Metabolic stability test: liver microsomal stability assay. In kind it is in vitro ADME, mouse. As to conditions: mouse liver microsomes 0.5 mg protein/mL, compound 1 µM; for microsomal CLint at 1 µM: male, pH 7.4, presence of NADPH, read-out: Mouse Hepatic Microsome CLh,int NADPH(+); for Mouse Hepatic Microsome CLh,int NADPH(-): absence of NADPH.
A further data set relates to Caco-2 cells. Nature of the data set: Membrane permeability test using Caco-2 cells with preincubation. As to conditions: Caco-2 cells, preincubation 20 to 24 hours; apical FaSSIF/HBSS 1% DMSO pH 6.0, basal HBSS 4% BSA pH 7.4; basal sample at 180 minutes. In kind it is in vitro ADME.
Experiment in data set [2]: as above
It is filed as in vitro ADME. As to conditions: Caco-2; preincubation 20 to 24 hours; Apical FaSSIF/HBSS pH 6.0, Basal HBSS 4% BSA pH 7.4; 180 minutes; read-out: Caco2 Papp.

Consider `CC[C@@H]1NC(=O)[C@H](CC(C)C)N(C)C(=O)[C@H](COC(C)(C)C)NC(=O)[C@H]([C@@H](C)CC)N(C)C(=O)[C@H](CCc2ccccc2)NC(=O)[C@H](Cc2ccccc2)N(C)C(=O)[C@H]([C@@H](C)CC)NC(=O)[C@H](CC(C)C)N(C)C(=O)[C@H](CC(C)C)N(C)C(=O)CCN(C)C(=O)C[C@@H](C)N(C)C(=O)CN(C)C(=O)[C@H](CC(C)C)N(C)C(=O)[C@@H]2CCCN2C1=O` [pd066] (cyclo([Abu]P[NMeL][Sar][NMedβ3hAla][NMeβAla][NMeL][NMeL]I[NMeF][hPhe][NMeI]S(tBu)[NMeL])), for which, in data set [1], the microsomal CLint at 1 µM amounted to 38.9 µL/min/mg and the “Mouse Hepatic Microsome CLh,int NADPH(-)” value is recorded as 36.4 µL/min/mg Protein. The “Caco2 Papp (10^-6 cm/sec)” value in the data set on Caco-2 cells is reported as 0.33 10^-6 cm/sec. In data set [2], the Papp A→B was found to be 0.33 ×10⁻⁶ cm/s.

For `CC[C@@H]1NC(=O)[C@@H]2CCCN2C(=O)[C@H](CC(C)C)N(C)C(=O)[C@H](C(C)C)NC(=O)[C@H](CC(C)C)N(C)C(=O)[C@H]([C@@H](C)O)NC(=O)[C@H](Cc2ccccc2)N(C)C(=O)CN(C)C(=O)C[C@@H](C)N(C)C(=O)[C@H](C(C)C)NC(=O)[C@H](COC(C)(C)C)NC(=O)[C@H](C)N(C)C(=O)[C@H](CC(C)C)NC(=O)[C@H](Cc2ccccc2)N(C)C1=O` [pd067] (cyclo([Abu][NMeF]L[NMeA]S(tBu)V[NMedβ3hAla][Sar][NMeF]T[NMeL]V[NMeL]P)), in data set [1], the microsomal CLint at 1 µM stood at 17 µL/min/mg and the “Mouse Hepatic Microsome CLh,int NADPH(-)” value stood at 10.8 µL/min/mg Protein. In addition, in the data set with Caco-2 cells, the “Caco2 Papp (10^-6 cm/sec)” value is recorded as <0.12 10^-6 cm/sec. Besides, in data set [2], the Papp A→B is < 0.12 ×10⁻⁶ cm/s.

As for `CC[C@@H]1NC(=O)[C@H](C(C)C)N(C)C(=O)[C@H](C)N(C)C(=O)[C@H](C(C)C)N(C)C(=O)[C@H](CC)N(C)C(=O)[C@H](Cc2ccccc2)N(C)C(=O)[C@H]([C@@H](C)O)N(C)C(=O)CNC(=O)[C@H](CC(C)C)N(C)C(=O)[C@H](C(C)C)NC(=O)[C@H](COC(C)(C)C)NC(=O)[C@H](CC(C)C)N(C)C(=O)[C@@H](C(C)C)NC(=O)C[C@@H](C)N(C)C1=O` [pd068] (cyclo([Abu][NMedβ3hAla][dV][NMeL]S(tBu)V[NMeL]G[NMeT][NMeF][NMeAbu][NMeV][NMeA][NMeV])), in data set [1], the microsomal CLint at 1 µM was found to be 15.7 µL/min/mg and the “Mouse Hepatic Microsome CLh,int NADPH(-)” value is recorded as 12.5 µL/min/mg Protein. The “Caco2 Papp (10^-6 cm/sec)” value in the data set with Caco-2 cells was 0.27 10^-6 cm/sec. For the same compound, in data set [2], the Papp A→B was 0.27 ×10⁻⁶ cm/s.

For `CC[C@@H]1NC(=O)[C@H]([C@@H](C)O)NC(=O)[C@H](Cc2ccccc2)N(C)C(=O)[C@H](CC(C)C)N(C)C(=O)[C@H](C(C)C)NC(=O)[C@H]([C@@H](C)CC)N(C)C(=O)[C@H]([C@@H](C)CC)NC(=O)[C@H](CC(C)C)N(C)C(=O)[C@H](C)N(C)C(=O)[C@H](C)NC(=O)C[C@@H](C)N(C)C(=O)[C@H](CC(C)C)N(C)C(=O)[C@H](C)N(C)C(=O)CN(C)C1=O` [pd069] (cyclo(A[NMeA][NMeL]I[NMeI]V[NMeL][NMeF]T[Abu][Sar][NMeA][NMeL][NMedβ3hAla])), in data set [1], the microsomal CLint at 1 µM is 16.5 µL/min/mg and the “Mouse Hepatic Microsome CLh,int NADPH(-)” value stood at 20.5 µL/min/mg Protein. In addition, the “Caco2 Papp (10^-6 cm/sec)” value in the data set on Caco-2 cells was <0.08 10^-6 cm/sec. The Papp A→B in data set [2] was < 0.08 ×10⁻⁶ cm/s.

For the compound `CC[C@@H]1NC(=O)[C@H](Cc2ccccc2)N(C)C(=O)[C@@H]2CCCN2C(=O)[C@H](CC(C)C)N(C)C(=O)[C@H](CC)NC(=O)[C@H](C(C)C)NC(=O)[C@H](CC(C)C)N(C)C(=O)[C@H]([C@@H](C)O)NC(=O)[C@H](Cc2ccccc2)N(C)C(=O)CN(C)C(=O)C[C@@H](C)N(C)C(=O)[C@H](C(C)C)NC(=O)[C@H](CC)N(C)C(=O)[C@H](C)N(C)C1=O` [pd070] (cyclo([Abu][NMeA][NMeAbu]V[NMedβ3hAla][Sar][NMeF]T[NMeL]V[Abu][NMeL]P[NMeF])), in data set [1], the microsomal CLint at 1 µM came to 15 µL/min/mg and the “Mouse Hepatic Microsome CLh,int NADPH(-)” value was 14.6 µL/min/mg Protein. The “Caco2 Papp (10^-6 cm/sec)” value in the data set on Caco-2 cells was 0.03 10^-6 cm/sec. Besides, the Papp A→B in data set [2] is 0.03 ×10⁻⁶ cm/s.

Regarding `CC[C@H]1C(=O)N(C)[C@H](C)CC(=O)N[C@H](C(C)C)C(=O)N(C)[C@@H](CC(C)C)C(=O)N(C)[C@@H](C(C)C)C(=O)N[C@@H](C)C(=O)N(C)[C@@H](CC(C)C)C(=O)NCC(=O)N(C)[C@@H]([C@@H](C)O)C(=O)N(C)[C@@H](Cc2ccccc2)C(=O)N(C)[C@@H](CC)C(=O)N[C@@H](COC(C)(C)C)C(=O)N(C)[C@@H](C)C(=O)N(C)[C@@H](C(C)C)C(=O)N1C` [pd071] (cyclo(A[NMeL]G[NMeT][NMeF][NMeAbu]S(tBu)[NMeA][NMeV][NMeAbu][NMedβ3hAla][dV][NMeL][NMeV])), in data set [1], the microsomal CLint at 1 µM was 13.3 µL/min/mg and the “Mouse Hepatic Microsome CLh,int NADPH(-)” value is listed as 6.2 µL/min/mg Protein. The “Caco2 Papp (10^-6 cm/sec)” value in the data set with Caco-2 cells was 0.22 10^-6 cm/sec. In addition, the Papp A→B in data set [2] was 0.22 ×10⁻⁶ cm/s.

For `CC[C@@H]1NC(=O)[C@H]([C@@H](C)O)NC(=O)[C@H](Cc2ccccc2)N(C)C(=O)[C@H](CC(C)C)N(C)C(=O)[C@H](C(C)C)N(C)C(=O)[C@H](CC)N(C)C(=O)[C@H]([C@@H](C)CC)NC(=O)[C@H](CC(C)C)N(C)C(=O)[C@H](C)N(C)C(=O)[C@H](C)NC(=O)C[C@@H](C)N(C)C(=O)[C@H](CC(C)C)N(C)C(=O)[C@H](C)N(C)C(=O)CN(C)C1=O` [pd072] (cyclo(A[NMeA][NMeL]I[NMeAbu][NMeV][NMeL][NMeF]T[Abu][Sar][NMeA][NMeL][NMedβ3hAla])), in data set [1], the microsomal CLint at 1 µM came out at 22.4 µL/min/mg and the “Mouse Hepatic Microsome CLh,int NADPH(-)” value is listed as 16.6 µL/min/mg Protein. Besides, the “Caco2 Papp (10^-6 cm/sec)” value in the data set with Caco-2 cells is listed as <0.13 10^-6 cm/sec. In addition, in data set [2], the Papp A→B is < 0.13 ×10⁻⁶ cm/s.

As to `CC[C@H]1C(=O)N(C)[C@@H](CC(C)C)C(=O)N2CCC[C@H]2C(=O)N(C)[C@@H](CC)C(=O)N[C@@H](CCc2ccccc2)C(=O)N(C)[C@@H](C)C(=O)N(C)[C@@H](CC)C(=O)N[C@@H](C(C)C)C(=O)N(C)[C@H](C)CC(=O)N(C)CC(=O)N(C)[C@@H](Cc2ccccc2)C(=O)N[C@@H]([C@@H](C)O)C(=O)N(C)[C@@H](CC(C)C)C(=O)N[C@@H](C(C)C)C(=O)N1C` [pd073] (cyclo([NMeA][NMeAbu]V[NMedβ3hAla][Sar][NMeF]T[NMeL]V[NMeAbu][NMeL]P[NMeAbu][hPhe])), in data set [1], the microsomal CLint at 1 µM amounted to 24.3 µL/min/mg and the “Mouse Hepatic Microsome CLh,int NADPH(-)” value was found to be 2.9 µL/min/mg Protein. The “Caco2 Papp (10^-6 cm/sec)” value with Caco-2 cells is given as <0.12 10^-6 cm/sec. In data set [2], the Papp A→B is < 0.12 ×10⁻⁶ cm/s.

Turning to `CC[C@@H]1NC(=O)[C@H](CC(C)C)N(C)C(=O)[C@H](CC(C)C)NC(=O)[C@H](C)N(C)C(=O)C[C@@H](C(=O)N2CCCCC2)N(C)C(=O)[C@H](C)N(C)C(=O)[C@H](CC(C)C)NC(=O)[C@H](CC(C)C)N(C)C(=O)CNC(=O)[C@H]([C@@H](C)CC)N(C)C(=O)[C@H](Cc2ccccc2)N(C)C(=O)[C@H](C)NC(=O)[C@H]([C@@H](C)CC)NC(=O)[C@H](Cc2ccccc2)N(C)C1=O` [pd075] ([NMeA]L[NMeL][Abu][NMeF]IA[NMeF][NMeI]G[NMeL]L[NMeA][NMeD]-Piperidide; lactam N-14), in data set [1], the microsomal CLint at 1 µM is 35.6 µL/min/mg and the “Mouse Hepatic Microsome CLh,int NADPH(-)” value came to 42.8 µL/min/mg Protein. Moreover, in the data set with Caco-2 cells, the “Caco2 Papp (10^-6 cm/sec)” value is on record as 0.17 10^-6 cm/sec. In data set [2], the Papp A→B amounted to 0.17 ×10⁻⁶ cm/s.
